Measurements taken from patent US20130072505A1, “6,9-Disubstituted Purine Derivatives and Their Use for Treating Skin” (priority 2006, published 2013).

What was measured:
[1] = tested on: Human diploid fibroblasts (HCA cells); test: inhibition of senescence, β-galactosidase staining; format: cell-based; conditions: test compounds about 50 μM at each passage; for Senescent Cells (%) HCA25: passage 25; for Senescent Cells (%) HCA80: passage 80
Experimental: Inhibition of senescence by several of the 6,9-disubstituted purine derivatives of this invention was determined; kinetin was also evaluated as a control. […] The medium used for the cell cultivation was removed, the cells were washed twice in PBS, and fixed in 2-3 ml of fixing solution comprised of a 2% formaldehyde and 0.2% glutaraldehyde in PBS. The cells were incubated at room temperature for 5 minutes, and then washed twice with PBS. The cells were subsequently incubated at 37° C. (without CO2) for 1 to 16 hours in 2-3 ml of the solution comprising potassium ferricyanide (5 mM), potassium ferrocyanide (5 mM), MgCl2 (2 mM), X-gal (5-bromo-4-chloro-3-indolyl-β-D-galactopyranoside) (1 mg/ml), in citric/phosphate buffer (pH 6.0). The test compounds (about 50 μM) were added to the medium at each passage. […] In this experiment, only senescent cells were stained blue due to the action of β-galactosidase on the substrate.

mouse fibroblasts NIH3T3 = test: in vitro cytotoxic activity, Calcein AM microtiter assay; format: cell-based; conditions: NIH3T3, 72 hours, highest concentration 166.7 μM, read-out: GI50 NIH-3T3
Experimental: (§1) In vitro cytotoxic activity of several of the 6,9-disubstituted purine derivatives of this invention was determined using a microtiter assay with Calcein AM and a panel of cell lines of different histogenetic and species origin; kinetin was also examined as a control. Because only metabolically active cells cleave Calcein AM (tetraacetoxymethyl ester of calcein), the intracellular concentration of calcein corresponds to the number of vital cells in the culture.
(§2) The following cell lines were used: human osteosarcoma (HOS); breast carcinoma MCF-7; human myeloid leukemia K-562; and mouse fibroblasts NIH3T3. The cells were maintained in Nunc/Corning 80 cm^2 plastic tissue culture flasks and cultured in cell culture medium (DMEM with 5 g/l glucose, 2 mM glutamine, 100 U/ml penicillin, 100 μg/ml streptomycin, 10% fetal calf serum, and sodium bicarbonate).
(§3) The cell suspensions were prepared and diluted according to the particular cell type and the expected target cell density (2.500-30.000 cells per well based on cell growth characteristics) were added by pipette (80 μl) into 96/well microtiter plates. Inoculates were allowed a pre-incubation period of 24 hours at 37° C. and 5% CO2 for stabilization. Four-fold dilutions of the intended test concentration were added at time zero in 20 μl aliquots to the microtiter plate wells. The test compounds were generally evaluated at six 4-fold dilutions. The highest well concentration used in the present study was 166.7 μM. All samples were examined in triplicates. Incubations of cells with the tested compounds was for 72 hours at 37° C., in 5% CO2 atmosphere and 100% humidity. At the end of the incubation period, Calcein AM was added to a final concentration of 1 μg/ml incubated for 1 hour. Fluorescence intensity (FI) was measured with a Labsystem FIA Reader Fluoroscan Ascent (UK). The cell survival (GI50) was calculated using the following equation: GI50=([…])/(mean FIcontrol well−mean FIblank)×100%. The GI50 value, the drug concentration lethal to 50% of the cells, was calculated from the obtained dose response curves.

breast carcinoma MCF-7 = test: as above; format: cell-based; conditions: Homo sapiens, MCF7; 72 hours; highest concentration 166.7 μM
Experimental: as §1, §2, §3

human osteosarcoma (HOS) = test: as above; format: cell-based; conditions: 72 hours, highest concentration 166.7 μM
Experimental: as §1, §2, §3

[2] = tested on: Human forskin fibroblasts (cell line BJ); test: in vitro cytotoxic activity, MTT assay; format: cell-based; conditions: 72 hours, BJ fibroblasts at middle passage
Experimental: In vitro cytotoxic activity of several of the 6,9-disubstituted purine derivatives of this invention against human diploid fibroblasts was determined by standard MTT assay optimized for 96-well plates. The assay is based on spectrofotometric measurement of the product of metabolic conversion of MTT by mitochondria of living cells.
Human forskin fibroblasts (cell line BJ) at middle passage were maintained in 75 cm^2 plastic tissue culture flasks and cultured in cell culture medium (DMEM with 5 g/l glucose, 2 mM glutamine, 100 U/ml penicillin, 100 μg/ml streptomycin, 10% fetal calf serum, and sodium bicarbonate).
About 5,000 cells were seeded per well of the 96-well plate. After 24 hours the cell culture medium was replaced with the cell culture medium containing a test compound. The test compounds were evaluated at six 2-fold dilutions. The highest concentration used in the present study was usually 200 μM. In the case of compounds with limited solubility in the culture medium the highest concentration was adjusted. Every test compound was examined in five replicates. Cells with the test compounds were incubated for 72 hours at 37° C. in 5% CO2 atmosphere and 100% humidity. At the end of the incubation period, the culture medium was replaced with the cell culture medium containing MTT (0.5 mg/ml) and cells were incubated for another 3 hours. The formazan formed was solubilized by DMSO and absorbance at 570 nm was measured. Ability of the tested compounds to inhibit MTT reducing activity of the cells was calculated as IC=(Acompound exposed well−mean Ablank)/(mean Acontrol well−meanAblank)×100%. IC10, the drug concentration causing 10% decrease in MTT reducing activity, was calculated from the obtained dose response curves.

[3] = tested on: Rat C6 glioma (ATCC No. CCL107); test: anti-inflammatory activity: isoproterenol-induced intracellular cAMP synthesis; format: cell-based; conditions: cAMP after 30 min with (−)-isoproterenol; for IC50: Rattus norvegicus, C6 glioma, 0.5 h, read-out: Anti-inflammatory Activity I50
Experimental: Anti-inflammatory activity of several of the 6,9-disubstituted purine derivatives of this invention was determined; kinetin was also evaluated as a control. Rat C6 glioma (ATCC No. CCL107) was cultivated in monolayer in serum-free chemically defined medium containing Ham's F10/minimal essential medium (1:1 v/v), 2 mM L-glutamine, 1% (v/v) minimal essential medium vitamins (100×), 1% (v/v) minimal essential medium nonessential amino acids (100×), 100 U/ml penicillin, […], and 30 nM sodium selenite. Incubation was performed at 37° C. in a humidified atmosphere. The assays were performed in the logaritmic growth phase at a density of 2.5×10^5 cells/cm^2. Intracellular cAMP synthesis was induced by addition of 5 mM (−)-isoproterenol; various amounts of test compounds were added at the same time as the (−)-isoproterenol. After 30 min incubation at 37° C., the medium was removed and the cellular amount of cAMP was determined using the cAMP-enzyme immunoassay kit from Amersham. The I50 value was determined from a dose-response curve in duplicate.

melting point [°C] | Compound | Senescent Cells (%) HCA50 [1] [%] | Senescent Cells (%) HCA25 [1] [%] | Senescent Cells (%) HCA80 [1] [%] | IC10 (concentration causing 10% decrease in MTT reducing activity) [2] [µM] | further results
142 to 143 | COc1ccc(CNc2ncnc3c2ncn3C2CCCCO2)c(OC)c1OC (centres unmarked) [6-(2,3,4-trimethoxybenzylamino)-9-(2-tetrahydropyranyl)purine] | 5 | 4 | 31 | – | –
– | COc1cccc(CNc2ncnc3c2ncn3C2CCCCO2)c1OC (centres unmarked) [6-(2,3-dimethoxybenzylamino)-9-(2-tetrahydropyranyl)purine] | – | – | – | – | GI50 (mouse fibroblasts NIH3T3): > 167 µM; GI50 (breast carcinoma MCF-7): > 167 µM; GI50 (human osteosarcoma (HOS)): > 167 µM
– | COc1cc(OC)c(OC)cc1CNc1ncnc2c1ncn2C1CCCCO1 (centres unmarked) [6-(2,4,5-trimethoxybenzylamino)-9-(2-tetrahydropyranyl)purine] | – | – | – | >200 | –
– | COc1cc(OC)c(OC)cc1Nc1ncnc2c1ncn2C1CCCCO1 (centres unmarked) [6-(2,4,5-trimethoxyphenylamino)-9-(2-tetrahydropyranyl)purine] | 4 | 5 | 25 | – | –
– | COc1cc(OC)c(CNc2ncnc3c2ncn3C2CCCCO2)c(OC)c1 (centres unmarked) [6-(2,4,6-trimethoxybenzylamino)-9-(2-tetrahydropyranyl)purine] | – | – | – | >50 | –
– | COc1ccc(CNc2ncnc3c2ncn3C2CCCCO2)c(OC)c1 (centres unmarked) [6-(2,4-dimethoxybenzylamino)-9-(2-tetrahydropyranyl)purine] | 6 | 4 | 25 | >25 | –
– | COc1ccc(Nc2ncnc3c2ncn3C2CCCCO2)c(OC)c1 (centres unmarked) [6-(2,4-dimethoxyphenylamino)-9-(2-tetrahydropyranyl)purine] | 4 | 4 | 29 | – | –
106 to 108 | COc1ccccc1CNc1ncnc2c1ncn2C1CCCCO1 (centres unmarked) [6-(2-methoxybenzylamino)-9-(2-tetrahydropyranyl)purine] | 6 | 4 | 22 | – | –
– | COc1cc(CNc2ncnc3c2ncn3C2CCCCO2)cc(OC)c1OC (centres unmarked) [6-(3,4,5-trimethoxybenzylamino)-9-(2-tetrahydropyranyl)purine] | – | – | – | – | IC10 (concentration causing 10% decrease in MTT reducing activity) ([2]; highest tested concentration 100 µmol/l): >100 µM; IC10 (concentration causing 10% decrease in MTT reducing activity) ([2]; highest tested concentration 200 µmol/l): >200 µM
– | COc1ccc(CNc2ncnc3c2ncn3C2CCCCO2)cc1OC (centres unmarked) [6-(3,4-dimethoxybenzylamino)-9-(2-tetrahydropyranyl)purine] | – | – | – | >200 | –
– | COc1ccc(Nc2ncnc3c2ncn3C2CCCCO2)cc1OC (centres unmarked) [6-(3,4-dimethoxyphenylamino)-9-(2-tetrahydropyranyl)purine] | 7 | 5 | 28 | – | –
– | COc1cc(CNc2ncnc3c2ncn3C2CCCCO2)cc(OC)c1 (centres unmarked) [6-(3,5-dimethoxybenzylamino)-9-(2-tetrahydropyranyl)purine] | – | – | – | >200 | GI50 (mouse fibroblasts NIH3T3): > 167 µM; GI50 (breast carcinoma MCF-7): > 167 µM; GI50 (human osteosarcoma (HOS)): > 167 µM; IC50 [3]: 11 µM; Anti-inflammatory Activity Effect [3]: Inhibition
87 to 88 | COc1cccc(CNc2ncnc3c2ncn3C2CCCO2)c1 (centres unmarked) [6-(3-methoxybenzylamino)-9-(2-tetrahydrofuranyl)purine] | – | – | – | – | GI50 (mouse fibroblasts NIH3T3): > 167 µM; GI50 (breast carcinoma MCF-7): > 167 µM; GI50 (human osteosarcoma (HOS)): > 167 µM
134 to 135 | COc1cccc(CNc2ncnc3c2ncn3C2CCCCO2)c1 (centres unmarked) [6-(3-methoxybenzylamino)-9-(2-tetrahydropyranyl)purine] | 5 | 5 | 24 | >100 | IC50 [3]: 7 µM; Anti-inflammatory Activity Effect [3]: Inhibition
182 to 183 | COc1ccc(CNc2ncnc3c2ncn3C2CCCO2)cc1 (centres unmarked) [6-(4-methoxybenzylamino)-9-(2-tetrahydrofuranyl)purine] | – | – | – | – | GI50 (mouse fibroblasts NIH3T3): > 167 µM; GI50 (breast carcinoma MCF-7): > 167 µM; GI50 (human osteosarcoma (HOS)): > 167 µM
128 to 129 | c1coc(CNc2ncnc3c2ncn3C2CCCO2)c1 (centres unmarked) [6-furfurylamino-9-(2-tetrahydrofuranyl)purine] | 4 | 3 | 12 | >200 | –
– | c1ccc(Nc2ncnc3c2ncn3C2CCCCO2)cc1 (centres unmarked) [6-phenylamino-9-(2-tetrahydropyranyl)purine] | – | – | – | – | IC50 [3]: 45 µM; Anti-inflammatory Activity Effect [3]: Inhibition
97 to 99 | COc1ccccc1CNc1ncnc2c1ncn2C1CCCO1 (centres unmarked) [Example 8, 6-(2-methoxybenzylamino)-9-(2-tetrahydrofuranyl)purine] | – | – | – | – | –
150 to 151 | COc1ccc(Nc2ncnc3c2ncn3C2CCCCO2)cc1 (centres unmarked) [Example 10, 6-(4-methoxyphenylamino)-9-(2-tetrahydropyranyl)purine] | – | – | – | – | –
150 to 152 | COc1ccc(OC)c(CNc2ncnc3c2ncn3C2CCCCO2)c1 (centres unmarked) [Example 12, 6-(2,5-dimethoxybenzylamino)-9-(2-tetrahydropyranyl)purine] | – | – | – | – | –
103 to 104 | COc1ccc(OC)c(CNc2ncnc3c2ncn3C2CCCO2)c1 (centres unmarked) [Example 13, 6-(2,5-dimethoxybenzylamino)-9-(2-tetrahydrofuranyl)purine] | – | – | – | – | –
140 to 141 | COc1ccc(CNc2ncnc3c2ncn3C2CCCO2)c(OC)c1OC (centres unmarked) [Example 15, 6-(2,3,4-trimethoxybenzylamino)-9-(2-tetrahydrofuranyl)purine] | – | – | – | – | –
